Test results reported in patent publication US7416741B2, “Copper lowering treatment of inflammatory and fibrotic diseases” (The Regents of the University of Michigan, priority 2002, dated 2008).
Where two headings read alike, the source gives them in different places.

Tests used:
Cp = assay: Serum Cp in the Con A mouse model; assay type: in vivo; conditions: Ex 5 Exp 1; after fourth Con A injection
Description: Twenty-four hours after each of the first three injections, one mouse from each group was bled, and serum ALT measured. In this experiment, TM was started in the TM treated mice before the first Con A injection. After the fourth injection of Con A, all the mice were bled for ALT and Cp measurements and the experiment terminated. The Cp levels in TM treated mice were 25-50% of non-TM treated animals.

LEC rat model = conditions: LEC rats, late stages of liver disease; cited from earlier work
rats = conditions: cited from earlier work
TNFα [1] = assay: Lung TNFα mRNA by real time RT-PCR, bleomycin model; assay type: in vivo, mouse; conditions: Ex 2 Exp 1; bleomycin/TM; day 7
Experimental: Cytokine assays. Expression of TNFα and TGFβ was determined in lung tissues from the various experiments. TNFα mRNA was measured in total RNA isolated from lung tissue homogenates. Primer Express 2.0 software (Applied Biosystems, Foster City, Calif.) was used to design Taqman primers and MGB probes (6-FAM conjugated) for TNFα, which were then purchased from Applied Biosystems (PE/ABI, Foster City, Calif.). Primers and probes for GAPDH were purchased from PE/ABI. GAPDH mRNA was used as internal control to normalize the amount of input RNA. One-step real time RT-PCR was undertaken with Taqman One Step RT-PCR Master Mix (PE/ABI) using a GeneAmp 5700 Sequence Detection System (PE/ABI). Results were expressed as the threshold cycle (CT) at which an increase of reporter fluorescence (ΔRn) can first be detected. The levels of TNFα mRNA were normalized to the internal control GAPDH signals and expressed as 2^−ΔΔCT.

TNFα [2] = assay: Plasma TNFα in Con A treated mice; assay type: in vivo, mouse; conditions: Ex 5 Exp 3; TM from 5 days before first of two Con A injections; 2 hrs after last; p=0.03
Description: In a third experiment, two Con A injections one week apart were given to 10 mice. Five of the mice had begun TM treatment 5 days prior to the first injection. All the mice were sacrificed 2 hrs after the last Con A injection.

cancer patients = assay: TM therapy in cancer patients; assay type: in vivo, human; conditions: 180 mg/day induction dose
Experimental: TM has also shown positive effects in spontaneous canine cancers. A clinical phase ½ study of a variety of metastatic and advanced cancers has shown positive results, with an average of 11 months freedom from progression in evaluable patients, and long term stabilization in three patients (G J Brewer et al., Clin. Cancer Res., 6:1-10 [2000]). A number of phase 2 studies of specific cancers are under way.
The current cancer therapy induction dose for TM is 40 mg 3×daily with meals and 60 mg at bedtime separated from food (180 mg/day). At this dose, it takes 15-25 days to induce cancer patients into the Cp target range. This same induction dose is used for IPF patients. All patients remain on their induction doses until they reach target Cp levels, then are switched to maintenance therapy.

[3] = tested on: bleomycin mouse model of pulmonary fibrosis; assay: Lung hydroxyproline assay in the bleomycin mouse model of pulmonary fibrosis; assay type: in vivo; conditions: for Hydroxyproline: sacrifice day 21
Description: In the bleomycin mouse model, which is known to be dependent upon the TGFβ pathway, the intratracheal administration of bleomycin leads to the development of severe lung inflammation followed by fibrosis in 2-3 weeks, at which time the mice are sacrificed. Fibrosis is quantified in lung tissue by measuring hydroxyproline, a key component of the collagen that is deposited in fibrotic lung.
Mice. Female CBA/J mice at 8-10 weeks of age were from the Jackson Laboratories (Bar Harbor, Me.). These mice weighed an average of 21.4 g at the start of experiments, with a standard deviation of 1.7 g.
Bleomycin treatment. This was undertaken on day 0 by endotracheal instillation through the oral cavity after exposure of the airway by pulling the tongue. Each mouse received 0.001 units of bleomycin (Bristol-Myers, Evansville, Ind.)/gm body weight in 30 μl of sterile saline, while control mice received an equal volume of sterile saline only.
TM treatment experiments. TM was given in 0.25 ml of water by intragastric gavage once daily, in the doses and times indicated in the various studies as described below.
Hydroxyproline assay. The extent of fibrosis was assessed by assaying hydroxyproline content of whole lung homogenates at the time of sacrifice as previously described (M Gharaee-Kermani et al., J. Leukoc. Biol., 64:657-666 [1998]). Results are expressed as μg hydroxyproline/lung (the lung tissue included both lungs).
Hydroxyproline assay. The extent of fibrosis was assessed by assaying hydroxyproline content of whole-lung homogenates at the time of sacrifice as described in Gharaee-Kermani, et al., J. Leukoc. Biol., 64:657-666 (1998). Hydroxyproline was expressed as micrograms of hydroxyproline per mouse lung (the lung tissue included both lungs).

Con A mouse model = assay: Liver histological examination in the Con A mouse model; assay type: in vivo; conditions: Ex 4; Con A mice
Experimental: A study was carried out in a mouse model of concanavilin A (Con A) production of liver cirrhosis. There were four experimental groups of several mice each. […] The Con A was injected intravenously once weekly into mice (0.3 mg/mouse/week), and produced a hepatitis, which is manifested by an increasing level of alanine transaminase (ALT) enzymes in the blood. The TM was given once daily by […] in a dose of 0.7 mg/mouse/day beginning 7 days prior to ConA treatment. During days 9 to 11 after Con A, the TM-treated mice received 1.2 mg of TM daily, to ensure adequate lowering of copper levels, and then received 0.7 mg daily for the duration of the study. A blood sample was obtained 28 days after ConA treatment, and the mice were sacrificed on the same day. Serum alanine transaminase (ALT) was measured in Sigma-Frankel (SF) units, where one unit is the formation of 0.000482 umoles of glutamate/minute at pH 7.5 and 25 ° C.

sheep = conditions: cited from earlier work

## [SH-].[SH-].[S]=[Mo]=[S] [TM, tetrathiomolybdate]
Cp
  Cp levels in TM treated mice relative to non-TM treated animals: 25-50%
LEC rat model
  efficacy against copper toxicity / liver disease: very effective
rats; approximately 6 mg of TM per kilogram of diet
  effects on copper levels (plasma ceruloplasmin, liver and kidney copper): substantial effects on copper levels
rats; approximately 12 mg of TM per kilogram of diet
  anemia: Mild anemia
rats; approximately 12 mg of TM
  skeletal lesions: one of six animals
rats; approximately 18 mg of TM
  anemia: severe
  growth rate: markedly impaired
  skeletal lesions: all animals had skeletal lesions
TNFα [1]
  lung TNFα mRNA levels, bleomycin-induced increase: almost completely, and significantly, inhibited this increase
TNFα [2]
  Plasma levels of TNFα: significantly lower
Cancer patients
  time to induce patients into the Cp target range: 15 to 25 days
[3]; Ex 1 Exp 1, Bleomycin/TM group
  Hydroxyproline: 162 ± 12 μg/lung
[3]; Ex 1 Exp 1, TM before bleomycin
  fibrosis as measured by hydroxyproline assay: almost completely abrogated fibrosis
[3]; Ex 1 Exp 1, TM only group
  Hydroxyproline: 193 ± 5 μg/lung
[3]; Ex 1 Exp 2, Bleomycin Group, 0.3 mg TM/mouse/day, day 21
  Hydroxyproline (Mean ± SE): 232 ± 4 μg hydroxyproline/lung
[3]; Ex 1 Exp 2, Bleomycin Group, 0.5 mg TM/mouse/day, day 21
  Hydroxyproline (Mean ± SE): 197 ± 15 μg hydroxyproline/lung
[3]; Ex 1 Exp 2, Bleomycin Group, 0.7 mg TM/mouse/day, day 21
  Hydroxyproline (Mean ± SE): 172 ± 22 μg hydroxyproline/lung
[3]; Ex 1 Exp 2, Bleomycin Group, 0.9 mg TM/mouse/day, day 21
  Hydroxyproline (Mean ± SE): 157 ± 14 μg hydroxyproline/lung
[3]; Ex 1 Exp 2, Control Group (Saline only), 0.3 mg TM/mouse/day
  Hydroxyproline (Mean ± SE): 132 ± 3 μg hydroxyproline/lung
[3]; Ex 1 Exp 2, Control Group (Saline only), 0.5 mg TM/mouse/day
  Hydroxyproline (Mean ± SE): 130 ± 5 μg hydroxyproline/lung
[3]; Ex 1 Exp 2, Control Group (Saline only), 0.7 mg TM/mouse/day
  Hydroxyproline (Mean ± SE): 152 ± 10 μg hydroxyproline/lung
[3]; Ex 1 Exp 2, Control Group (Saline only), 0.9 mg TM/mouse/day
  Hydroxyproline (Mean ± SE): 130 ± 8 μg hydroxyproline/lung
[3]; Ex 1 Exp 2, TM 0.3 to 0.9 mg
  protection against bleomycin-induced fibrosis as measured by hydroxyproline accumulation: dose dependent
[3]; Ex 1 Exp 2, no bleomycin
  effect of TM treatment alone on hydroxyproline levels: no effect of TM treatment alone on hydroxyproline levels
[3]; Ex 1 Exp 3, TM given before bleomycin or started at day 4 or 7 after, 1.2 then 0.9 mg/mouse/day
  hydroxyproline production: significant suppression of hydroxyproline production
[3]; Ex 1 Exp 3, no bleomycin
  effect of TM alone on hydroxyproline levels: no effect of TM alone on hydroxyproline levels
[3]; Ex 2 Exp 2, TM from day 5, day 21
  lung hydroxyproline levels, bleomycin-induced increase: completely and significantly inhibited the increase
Con A mouse model
  histological examination: inflammation and early bridging fibrosis: not in the TM treated animals
sheep; copper loaded sheep, 50 or 100 mg 2×weekly for up to 11 weeks
  tolerability of intravenous TM: tolerated up to 22 injections of TM without clinical problems
sheep; prophylactic use in commercial sheep flocks, over 400 animals
  adverse side effects: no adverse side effects
